{
  "source": "the kinase profiling compilation of Christmann-Franck et al. (2016)",
  "assay_in_all_cases": "KINOMEscan competition binding",
  "conditions_in_all_cases": "compound 10.0 µM",
  "key": {"AXL (human)": {"target": "AXL (human) (UniProt P30530)"}, "RAF1 (human)": {"target": "RAF1 (human) (UniProt P04049)"}, "TNIK (human)": {"target": "TNIK (human) (UniProt Q9UKE5)"}, "SRC (human)": {"target": "SRC (human) (UniProt P12931)", "sequence (P12931 whole entry, looked up)": "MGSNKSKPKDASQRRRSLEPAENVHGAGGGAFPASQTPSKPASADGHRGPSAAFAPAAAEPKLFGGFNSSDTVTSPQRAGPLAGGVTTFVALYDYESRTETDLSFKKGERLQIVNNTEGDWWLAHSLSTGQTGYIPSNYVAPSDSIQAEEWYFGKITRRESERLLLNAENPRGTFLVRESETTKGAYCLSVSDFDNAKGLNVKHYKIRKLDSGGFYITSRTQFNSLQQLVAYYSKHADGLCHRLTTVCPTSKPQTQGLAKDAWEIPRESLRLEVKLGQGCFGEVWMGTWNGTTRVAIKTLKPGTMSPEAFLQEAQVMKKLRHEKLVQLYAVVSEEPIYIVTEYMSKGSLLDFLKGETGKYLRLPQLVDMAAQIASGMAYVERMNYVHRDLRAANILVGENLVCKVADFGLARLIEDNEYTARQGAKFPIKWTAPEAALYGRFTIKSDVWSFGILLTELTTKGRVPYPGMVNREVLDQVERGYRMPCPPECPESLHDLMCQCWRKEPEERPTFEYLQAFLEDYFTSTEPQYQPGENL"}, "STK16 (human)": {"target": "STK16 (human) (UniProt O75716)"}, "MAPK10 (human)": {"target": "MAPK10 (human) (UniProt P53779)"}, "FLT1 (human)": {"target": "FLT1 (human) (UniProt P17948)"}, "STK11 (human)": {"target": "STK11 (human) (UniProt Q15831)"}, "BRSK2 (human)": {"target": "BRSK2 (human) (UniProt Q8IWQ3)", "sequence (Q8IWQ3 whole entry, looked up)": "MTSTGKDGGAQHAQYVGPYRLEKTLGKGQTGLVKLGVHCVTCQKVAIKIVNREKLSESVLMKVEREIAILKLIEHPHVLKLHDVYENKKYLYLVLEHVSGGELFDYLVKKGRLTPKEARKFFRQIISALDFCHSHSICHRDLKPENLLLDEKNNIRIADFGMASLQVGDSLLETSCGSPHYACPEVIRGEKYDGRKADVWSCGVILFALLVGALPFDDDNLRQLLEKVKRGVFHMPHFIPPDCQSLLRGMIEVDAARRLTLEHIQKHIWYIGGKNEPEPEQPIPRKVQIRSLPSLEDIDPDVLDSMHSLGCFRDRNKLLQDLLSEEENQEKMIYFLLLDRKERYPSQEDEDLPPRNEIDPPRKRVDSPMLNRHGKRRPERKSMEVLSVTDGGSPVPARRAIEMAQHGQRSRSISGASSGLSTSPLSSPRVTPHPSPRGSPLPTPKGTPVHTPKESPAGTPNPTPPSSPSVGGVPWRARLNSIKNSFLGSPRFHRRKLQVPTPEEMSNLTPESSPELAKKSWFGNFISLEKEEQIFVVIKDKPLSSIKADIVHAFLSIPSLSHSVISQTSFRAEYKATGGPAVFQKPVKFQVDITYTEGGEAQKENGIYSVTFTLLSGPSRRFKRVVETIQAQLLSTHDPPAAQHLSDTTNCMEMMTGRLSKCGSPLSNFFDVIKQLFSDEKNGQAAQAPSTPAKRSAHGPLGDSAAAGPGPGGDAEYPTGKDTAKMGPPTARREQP"}, "BRAF (human)": {"target": "BRAF (human) (UniProt P15056)"}, "MAP4K3 (human)": {"target": "MAP4K3 (human) (UniProt Q8IVH8)"}, "BMP2K (human)": {"target": "BMP2K (human) (UniProt Q9NSY1)"}, "SIK2 (human)": {"target": "SIK2 (human) (UniProt Q9H0K1)"}, "AURKA (human)": {"target": "AURKA (human) (UniProt O14965)"}, "AAK1 (human)": {"target": "AAK1 (human) (UniProt Q2M2I8)", "sequence (Q2M2I8 whole entry, looked up)": "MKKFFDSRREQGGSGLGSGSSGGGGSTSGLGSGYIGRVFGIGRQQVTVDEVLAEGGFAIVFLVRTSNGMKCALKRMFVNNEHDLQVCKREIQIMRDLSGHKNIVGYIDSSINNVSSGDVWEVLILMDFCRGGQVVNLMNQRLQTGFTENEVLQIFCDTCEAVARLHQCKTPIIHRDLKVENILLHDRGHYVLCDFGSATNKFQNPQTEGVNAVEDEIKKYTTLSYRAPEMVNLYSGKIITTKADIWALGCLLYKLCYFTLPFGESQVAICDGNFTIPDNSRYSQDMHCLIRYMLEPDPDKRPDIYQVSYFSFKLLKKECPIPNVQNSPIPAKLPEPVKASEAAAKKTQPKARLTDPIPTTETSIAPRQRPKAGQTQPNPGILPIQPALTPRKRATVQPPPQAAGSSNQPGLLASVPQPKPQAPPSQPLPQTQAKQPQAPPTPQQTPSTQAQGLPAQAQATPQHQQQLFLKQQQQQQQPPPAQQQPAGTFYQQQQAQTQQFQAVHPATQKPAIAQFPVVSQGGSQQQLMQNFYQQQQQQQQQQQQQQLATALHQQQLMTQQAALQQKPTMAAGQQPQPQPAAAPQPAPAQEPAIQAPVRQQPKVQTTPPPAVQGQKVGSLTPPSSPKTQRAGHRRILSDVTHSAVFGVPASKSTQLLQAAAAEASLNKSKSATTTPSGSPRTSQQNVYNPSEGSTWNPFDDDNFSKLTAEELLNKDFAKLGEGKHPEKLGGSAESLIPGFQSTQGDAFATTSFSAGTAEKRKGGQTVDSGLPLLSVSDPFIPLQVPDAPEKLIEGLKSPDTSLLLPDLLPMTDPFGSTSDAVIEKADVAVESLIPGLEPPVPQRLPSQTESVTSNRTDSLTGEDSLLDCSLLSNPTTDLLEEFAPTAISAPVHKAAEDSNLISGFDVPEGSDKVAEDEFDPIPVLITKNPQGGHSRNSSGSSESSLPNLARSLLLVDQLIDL"}, "MST4 (human)": {"target": "MST4 (human) (UniProt Q9P289)", "sequence (Q9P289 whole entry, looked up)": "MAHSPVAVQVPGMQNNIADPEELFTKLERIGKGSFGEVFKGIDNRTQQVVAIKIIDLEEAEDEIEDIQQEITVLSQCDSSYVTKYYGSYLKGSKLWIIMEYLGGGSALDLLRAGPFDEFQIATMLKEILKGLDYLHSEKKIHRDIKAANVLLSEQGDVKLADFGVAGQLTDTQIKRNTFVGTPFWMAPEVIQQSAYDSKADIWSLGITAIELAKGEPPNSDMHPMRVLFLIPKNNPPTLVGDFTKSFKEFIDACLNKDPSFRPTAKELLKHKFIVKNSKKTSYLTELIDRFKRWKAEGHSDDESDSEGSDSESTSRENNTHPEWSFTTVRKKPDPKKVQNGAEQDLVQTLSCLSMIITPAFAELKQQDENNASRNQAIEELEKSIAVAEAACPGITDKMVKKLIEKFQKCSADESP"}, "CSNK1G1 (human)": {"target": "CSNK1G1 (human) (UniProt Q9HCP0)", "sequence (Q9HCP0 whole entry, looked up)": "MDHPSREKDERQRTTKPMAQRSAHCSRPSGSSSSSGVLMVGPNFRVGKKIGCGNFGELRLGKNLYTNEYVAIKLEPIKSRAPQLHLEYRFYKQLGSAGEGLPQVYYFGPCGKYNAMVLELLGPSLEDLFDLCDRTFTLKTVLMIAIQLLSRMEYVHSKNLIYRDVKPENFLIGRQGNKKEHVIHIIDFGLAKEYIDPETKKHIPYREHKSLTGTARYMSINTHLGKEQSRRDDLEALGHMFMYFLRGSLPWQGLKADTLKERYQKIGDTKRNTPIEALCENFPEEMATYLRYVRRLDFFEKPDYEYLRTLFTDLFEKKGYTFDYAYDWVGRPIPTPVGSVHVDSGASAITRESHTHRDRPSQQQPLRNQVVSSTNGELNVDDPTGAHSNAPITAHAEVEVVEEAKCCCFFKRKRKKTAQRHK"}, "[1]": {"target": "TYK2 JH1 catalytic (human) (UniProt P29597)", "sequence (P29597 whole entry, looked up)": "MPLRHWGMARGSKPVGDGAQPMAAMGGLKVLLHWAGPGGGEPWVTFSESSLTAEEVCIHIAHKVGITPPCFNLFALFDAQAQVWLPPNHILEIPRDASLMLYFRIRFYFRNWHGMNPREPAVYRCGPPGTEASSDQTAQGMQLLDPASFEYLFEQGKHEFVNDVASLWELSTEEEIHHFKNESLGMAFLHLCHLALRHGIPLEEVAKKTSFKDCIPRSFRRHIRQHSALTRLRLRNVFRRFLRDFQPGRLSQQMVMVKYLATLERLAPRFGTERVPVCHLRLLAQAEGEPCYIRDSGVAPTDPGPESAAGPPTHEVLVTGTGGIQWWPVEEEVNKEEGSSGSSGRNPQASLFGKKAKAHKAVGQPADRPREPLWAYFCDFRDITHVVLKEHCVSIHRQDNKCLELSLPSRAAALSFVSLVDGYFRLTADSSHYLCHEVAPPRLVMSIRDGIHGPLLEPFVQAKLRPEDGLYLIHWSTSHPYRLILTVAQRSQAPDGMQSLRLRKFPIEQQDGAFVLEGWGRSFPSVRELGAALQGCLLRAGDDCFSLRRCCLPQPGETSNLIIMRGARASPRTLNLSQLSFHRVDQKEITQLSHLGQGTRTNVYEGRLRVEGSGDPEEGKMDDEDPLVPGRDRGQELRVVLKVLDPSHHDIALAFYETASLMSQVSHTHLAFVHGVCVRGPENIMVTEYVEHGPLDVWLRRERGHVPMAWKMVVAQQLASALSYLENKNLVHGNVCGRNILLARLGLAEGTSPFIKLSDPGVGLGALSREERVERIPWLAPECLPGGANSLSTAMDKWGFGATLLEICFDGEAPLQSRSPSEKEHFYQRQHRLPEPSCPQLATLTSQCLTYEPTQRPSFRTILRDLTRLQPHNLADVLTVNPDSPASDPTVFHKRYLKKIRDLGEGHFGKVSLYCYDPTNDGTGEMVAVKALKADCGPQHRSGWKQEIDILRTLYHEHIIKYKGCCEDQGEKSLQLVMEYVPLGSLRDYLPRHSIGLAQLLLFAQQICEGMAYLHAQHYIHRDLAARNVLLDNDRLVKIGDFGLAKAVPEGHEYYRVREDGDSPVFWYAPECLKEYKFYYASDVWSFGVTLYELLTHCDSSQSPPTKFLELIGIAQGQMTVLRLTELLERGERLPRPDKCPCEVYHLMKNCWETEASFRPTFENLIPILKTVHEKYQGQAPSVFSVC"}, "STK24 (human)": {"target": "STK24 (human) (UniProt Q9Y6E0)"}, "NTRK3 (human)": {"target": "NTRK3 (human) (UniProt Q16288)"}, "CAMK1D (human)": {"target": "CAMK1D (human) (UniProt Q8IU85)"}, "YES1 (human)": {"target": "YES1 (human) (UniProt P07947)"}, "BTK (human)": {"target": "BTK (human) (UniProt Q06187)"}, "CSF1R (human)": {"target": "CSF1R (human) (UniProt P07333)"}, "BLK (human)": {"target": "BLK (human) (UniProt P51451)"}, "CSNK1E (human)": {"target": "CSNK1E (human) (UniProt P49674)"}, "NTRK2 (human)": {"target": "NTRK2 (human) (UniProt Q16620)"}, "AURKC (human)": {"target": "AURKC (human) (UniProt Q9UQB9)"}, "STK10 (human)": {"target": "STK10 (human) (UniProt O94804)"}, "CDK16 (human)": {"target": "CDK16 (human) (UniProt Q00536)"}, "STK3 (human)": {"target": "STK3 (human) (UniProt Q13188)"}, "FLT3 (human)": {"target": "FLT3 (human) (UniProt P36888)"}, "CDK5 (human)": {"target": "CDK5 (human) (UniProt Q00535)"}, "EPHA8 (human)": {"target": "EPHA8 (human) (UniProt P29322)"}, "MARK2 (human)": {"target": "MARK2 (human) (UniProt Q7KZI7)"}, "STK4 (human)": {"target": "STK4 (human) (UniProt Q13043)"}, "PDGFRA (human)": {"target": "PDGFRA (human) (UniProt P16234)"}, "TLK1 (human)": {"target": "TLK1 (human) (UniProt Q9UKI8)", "sequence (Q9UKI8 whole entry, looked up)": "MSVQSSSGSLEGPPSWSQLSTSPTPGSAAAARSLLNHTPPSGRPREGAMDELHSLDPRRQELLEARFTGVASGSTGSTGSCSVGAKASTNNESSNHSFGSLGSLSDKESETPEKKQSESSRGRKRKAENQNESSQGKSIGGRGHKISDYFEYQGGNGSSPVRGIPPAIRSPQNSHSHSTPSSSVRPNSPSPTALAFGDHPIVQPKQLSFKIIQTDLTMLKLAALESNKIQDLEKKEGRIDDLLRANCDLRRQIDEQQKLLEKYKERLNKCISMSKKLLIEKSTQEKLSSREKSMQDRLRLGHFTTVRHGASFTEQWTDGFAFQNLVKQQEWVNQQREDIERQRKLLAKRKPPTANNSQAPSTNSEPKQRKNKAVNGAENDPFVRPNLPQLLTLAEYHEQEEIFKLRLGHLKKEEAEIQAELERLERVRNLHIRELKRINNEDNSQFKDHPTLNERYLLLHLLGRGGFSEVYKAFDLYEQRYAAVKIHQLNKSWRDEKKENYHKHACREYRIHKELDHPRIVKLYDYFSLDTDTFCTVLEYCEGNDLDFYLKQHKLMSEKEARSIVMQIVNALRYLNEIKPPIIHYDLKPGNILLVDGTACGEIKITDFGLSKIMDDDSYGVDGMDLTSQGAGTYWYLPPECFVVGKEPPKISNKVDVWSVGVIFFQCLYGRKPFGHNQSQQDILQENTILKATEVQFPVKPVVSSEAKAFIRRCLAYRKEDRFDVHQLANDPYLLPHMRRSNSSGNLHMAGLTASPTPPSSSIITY"}, "CAMK2A (human)": {"target": "CAMK2A (human) (UniProt Q9UQM7)"}, "ABL2 (human)": {"target": "ABL2 (human) (UniProt P42684)"}},
  "data": [
    {"smiles": "CCS(=O)(=O)Nc1ccc2c(c1)[C@H](/C(=N/c1ccc(CN3CCCCC3)cc1)c1ccccc1)C(=O)N2", "values": [
      {"measurement": "kinase still bound, per cent of control", "setting": "AXL (human)", "value": 0, "unit": "%"},
      {"measurement": "kinase still bound, per cent of control", "setting": "RAF1 (human)", "value": "no effect (inactive)"},
      {"measurement": "kinase still bound, per cent of control", "setting": "TNIK (human)", "value": 0, "unit": "%"},
      {"measurement": "kinase still bound, per cent of control", "setting": "SRC (human)", "value": 0, "unit": "%"},
      {"measurement": "kinase still bound, per cent of control", "setting": "STK16 (human)", "value": 0, "unit": "%"},
      {"measurement": "kinase still bound, per cent of control", "setting": "MAPK10 (human)", "value": 0, "unit": "%"},
      {"measurement": "kinase still bound, per cent of control", "setting": "FLT1 (human)", "value": 0.1, "unit": "%"},
      {"measurement": "kinase still bound, per cent of control", "setting": "STK11 (human)", "value": 1, "unit": "%"},
      {"measurement": "kinase still bound, per cent of control", "setting": "BRSK2 (human)", "value": 0, "unit": "%"},
      {"measurement": "kinase still bound, per cent of control", "setting": "BRAF (human)", "value": "no effect (inactive)"},
      {"measurement": "kinase still bound, per cent of control", "setting": "MAP4K3 (human)", "value": 0.1, "unit": "%"},
      {"measurement": "kinase still bound, per cent of control", "setting": "BMP2K (human)", "value": 0, "unit": "%"},
      {"measurement": "kinase still bound, per cent of control", "setting": "SIK2 (human)", "value": 0.8, "unit": "%"},
      {"measurement": "kinase still bound, per cent of control", "setting": "AURKA (human)", "value": 0, "unit": "%"},
      {"measurement": "kinase still bound, per cent of control", "setting": "AAK1 (human)", "value": 0.1, "unit": "%"},
      {"measurement": "kinase still bound, per cent of control", "setting": "MST4 (human)", "value": 17.2, "unit": "%"},
      {"measurement": "kinase still bound, per cent of control", "setting": "CSNK1G1 (human)", "value": "no effect (inactive)"},
      {"measurement": "kinase still bound, per cent of control", "setting": "[1]", "value": 0, "unit": "%"},
      {"measurement": "kinase still bound, per cent of control", "setting": "STK24 (human)", "value": 0.1, "unit": "%"},
      {"measurement": "kinase still bound, per cent of control", "setting": "NTRK3 (human)", "value": 0, "unit": "%"},
      {"measurement": "kinase still bound, per cent of control", "setting": "CAMK1D (human)", "value": 0.7, "unit": "%"},
      {"measurement": "kinase still bound, per cent of control", "setting": "YES1 (human)", "value": 0, "unit": "%"},
      {"measurement": "kinase still bound, per cent of control", "setting": "BTK (human)", "value": 0, "unit": "%"},
      {"measurement": "kinase still bound, per cent of control", "setting": "CSF1R (human)", "value": 0, "unit": "%"},
      {"measurement": "kinase still bound, per cent of control", "setting": "BLK (human)", "value": 0, "unit": "%"},
      {"measurement": "kinase still bound, per cent of control", "setting": "CSNK1E (human)", "value": 2.4, "unit": "%"},
      {"measurement": "kinase still bound, per cent of control", "setting": "NTRK2 (human)", "value": 0, "unit": "%"},
      {"measurement": "kinase still bound, per cent of control", "setting": "AURKC (human)", "value": 0.5, "unit": "%"},
      {"measurement": "kinase still bound, per cent of control", "setting": "STK10 (human)", "value": 0, "unit": "%"},
      {"measurement": "kinase still bound, per cent of control", "setting": "CDK16 (human)", "value": 0, "unit": "%"},
      {"measurement": "kinase still bound, per cent of control", "setting": "STK3 (human)", "value": 0, "unit": "%"},
      {"measurement": "kinase still bound, per cent of control", "setting": "FLT3 (human)", "value": 0, "unit": "%"},
      {"measurement": "kinase still bound, per cent of control", "setting": "CDK5 (human)", "value": 16.8, "unit": "%"},
      {"measurement": "kinase still bound, per cent of control", "setting": "EPHA8 (human)", "value": 0.4, "unit": "%"},
      {"measurement": "kinase still bound, per cent of control", "setting": "MARK2 (human)", "value": 0.3, "unit": "%"},
      {"measurement": "kinase still bound, per cent of control", "setting": "STK4 (human)", "value": 0, "unit": "%"},
      {"measurement": "kinase still bound, per cent of control", "setting": "PDGFRA (human)", "value": 0.8, "unit": "%"},
      {"measurement": "kinase still bound, per cent of control", "setting": "TLK1 (human)", "value": 0.75, "unit": "%"},
      {"measurement": "kinase still bound, per cent of control", "setting": "CAMK2A (human)", "value": 0.5, "unit": "%"},
      {"measurement": "kinase still bound, per cent of control", "setting": "ABL2 (human)", "value": 4.8, "unit": "%"}
    ]}
  ]
}
